Assay results reported in ChEMBL document CHEMBL1201862, “PubChem BioAssay data set” (2004).
Calls of active or inactive are those of the source.

Assays:
[1] = intracellular Trypanosoma cruzi inhibitors in host cells – cell-based, plate reader, cherry-pick samples, set 3, dose response (AID 651818); format: functional;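 also: compounds incubated with infected cells for about four days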
[2] = P. falciparum Dd2 growth inhibitors, dose response, SYBR Green, cherry-picked samples (AID 1159567); format: functional, cell-based
[3] = toxicity to human hepatoma HepG2 cells – cell-based, cherry-picked samples, cytotoxicity control, dose response (AID 1159577); format: functional
HEK293 = assay: EBV LMP1 TES2 canonical NF-kB signalling blockers – cell-based, HEK293, luciferase, cherry-pick, dose response (AID 588343); format: functional; conditions: Homo sapiens
[4] = target: Heat shock protein HSP 90-alpha (Homo sapiens, UniProt P07900); format: functional, organism-based
Cytochrome P450 3A4 = Cytochrome P450 3A4 (Homo sapiens, UniProt P08684);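 also: CYP3A4 tested as one member of a cytochrome P450 panel screen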
[5] = alpha-synuclein stem-loop luciferase translation blockers – H4 neuroglioma cells, luminescence, confirmation (AID 1988); format: functional, cell-based
[6] = Luminescence Cell-Based Dose Response HTS to Identify Inhibitors of 5'UTR Stem-Loop Driven Prion Protein mRNA Translation in H4 Neuroglioblastoma Cells. [Related pubchem assays: 1827 (Project Summary), 1813 (Primary HTS)]; format: functional
[7] = luciferase reporter signal suppression in cells – H4 neuroglioma cells, luminescence, dose response (AID 1990); format: functional, cell-based
cells [8] = format: functional
[9] = microbe, parasite or virus in culture; format: functional; conditions: Mycobacterium tuberculosis
[10] = Vero E6 cell cytotoxicity, dose response, cytotoxicity control for non-replicating M. tuberculosis project, secondary assay (AID 492998); format: functional, VeroE6; conditions: Vero C1008
[11] = THP-1 cell cytotoxicity, dose response, cytotoxicity control for non-replicating M. tuberculosis project (AID 489025); format: functional
[12] = Trypanosoma cruzi growth suppression in host cells – NIH3T3 host cells, beta-gal luminescence, confirmation (AID 2044); format: functional, cell-based;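 also: intracellular parasites grown in NIH/3T3 mouse fibroblasts as host cells; luminescent beta-galactosidase reporter signal from transgenic T. cruzi replicating inside host cells; inhibitors lower the luminescence signal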
[13] = target: T1, Heat shock factor protein 1 (Mus musculus, UniProt P38532); assay: enhancement of HSF1-driven luciferase signal – cell-based, NIH3T3, luminescence, dose retest, confirmation (AID 435004); format: functional;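 also: stress induced by proteasome inhibitor MG132 added 30 min after compound; luciferase reporter driven by HSF1 response element in NIH3T3 cells; actives raise luminescence as potentiators of the MG132 stress response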
T1 sequence (P38532 whole entry): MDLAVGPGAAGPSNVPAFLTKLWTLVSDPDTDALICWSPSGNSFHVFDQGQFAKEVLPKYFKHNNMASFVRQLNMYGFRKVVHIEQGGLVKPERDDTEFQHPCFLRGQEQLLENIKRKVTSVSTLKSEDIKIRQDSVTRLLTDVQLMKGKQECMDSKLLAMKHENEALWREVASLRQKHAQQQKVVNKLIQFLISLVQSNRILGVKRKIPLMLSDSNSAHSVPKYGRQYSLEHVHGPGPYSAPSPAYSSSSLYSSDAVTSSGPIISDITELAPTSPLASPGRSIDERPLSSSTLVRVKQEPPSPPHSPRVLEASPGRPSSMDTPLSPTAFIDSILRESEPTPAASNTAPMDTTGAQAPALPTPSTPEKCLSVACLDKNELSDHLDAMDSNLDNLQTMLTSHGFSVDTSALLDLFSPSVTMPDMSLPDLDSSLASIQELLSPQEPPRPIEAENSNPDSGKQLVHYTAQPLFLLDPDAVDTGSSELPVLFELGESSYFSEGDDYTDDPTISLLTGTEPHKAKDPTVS

Fatty acid synthase [14] = target: T2, Fatty acid synthase (Homo sapiens, UniProt P49327); assay: inhibition of human FAS-TE enzyme activity – biochemical, endpoint fluorescence intensity, uHTS hits, dose response (AID 624327); format: functional;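 also: fluorescence from hydrolysis of an O-methyl fluorescein acyl ester substrate by the enzyme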
Fatty acid synthase [15] = target: T2, Fatty acid synthase; assay: inhibition of human FAS-TE enzyme activity – biochemical, kinetic fluorescence intensity, dose response (AID 624326); format: functional;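 also: rate of fluorescence rise from hydrolysis of a fluorogenic O-methyl fluorescein ester substrate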
[16] = NIH3T3 cell viability loss – ATP luminescence, mouse fibroblasts, counter-screen, dose response (AID 2010); format: functional, cell-based;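 also: cells exposed to compound for about 90 hours before reading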
Leucine aminopeptidase = target: T3, Leucine aminopeptidase (Plasmodium falciparum 3D7, UniProt Q8IL11); assay: P. falciparum M17LAP inhibitors, primary screen, biochemical, fluorogenic H-Leu-NHMec substrate, 1536-well (AID 1619); format: functional
T3 sequence (Q8IL11 whole entry): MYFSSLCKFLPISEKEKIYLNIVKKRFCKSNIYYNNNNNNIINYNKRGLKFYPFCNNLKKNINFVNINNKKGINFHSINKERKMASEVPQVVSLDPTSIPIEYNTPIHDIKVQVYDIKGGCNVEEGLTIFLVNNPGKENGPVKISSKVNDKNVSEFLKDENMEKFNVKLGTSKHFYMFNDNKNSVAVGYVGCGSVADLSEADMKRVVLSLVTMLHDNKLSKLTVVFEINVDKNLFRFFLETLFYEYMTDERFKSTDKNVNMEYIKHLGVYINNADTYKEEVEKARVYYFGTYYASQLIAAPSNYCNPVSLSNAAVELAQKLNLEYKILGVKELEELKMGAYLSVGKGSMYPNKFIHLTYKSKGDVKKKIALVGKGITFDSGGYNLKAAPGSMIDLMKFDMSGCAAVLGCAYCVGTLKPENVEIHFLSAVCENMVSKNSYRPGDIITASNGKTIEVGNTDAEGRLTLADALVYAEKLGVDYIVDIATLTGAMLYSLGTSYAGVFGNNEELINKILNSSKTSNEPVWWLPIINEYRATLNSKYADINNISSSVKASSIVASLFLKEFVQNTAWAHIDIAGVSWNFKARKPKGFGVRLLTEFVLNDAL

[17] = target: T1, Heat shock factor protein 1; assay: decrease of HSF1-responsive luciferase luminescence – cell-based, NIH3T3, dose retest, confirmation (AID 2382); format: functional;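 also: NIH3T3 fibroblasts with HSF1-driven luciferase reporter stressed by proteasome inhibitor MG132; luminescence from HSF1-driven luciferase expression after 8 hours of MG132 stress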
INS1 = assay: INS-1E survival protection against cytokine death – cell-based, luminescence, retest, dose response (AID 449756); format: functional; conditions: Rattus norvegicus;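 also: cell death triggered by IL-1 beta plus TNF-alpha plus IFN-gamma mixture; protective hits raise ATP signal compared with cytokine alone wells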
[18] = NIH-3T3 fibroblast cytotoxicity, dose response, cytotoxicity control, cell-based, fluorescence, Alamar Blue, secondary assay (AID 2327); format: functional;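 also: NIH-3T3 mouse fibroblasts cultured with fluconazole at 8 µg/mL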
[19] = fluconazole-exposed Candida albicans growth modulators – fluorescence, retest, confirmation (AID 2467); format: functional, cell-based
cells [20] = format: functional, cell-based
cells [21] = format: functional, cell-based; remark: listed apart in the source
[22] = tested on: Streptococcus sp. 'group A'; assay: Streptococcus pyogenes SK(-)GAS viability under kanamycin – luminescence, BacTiterGlo, confirmation, counter-screen for streptokinase expression inhibitor project, dose response (AID 1900); format: functional, organism-based
Streptococcus = assay: GAS UMAA2166 growth inhibition – luminescence, BacTiterGlo, counter-screen for streptokinase expression inhibitor project, dose response (AID 1915); format: functional, organism-based;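 also: potency for reduction of bacterial viability or growth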
Streptokinase A = target: T4, Streptokinase A (Streptococcus pyogenes serotype M1, UniProt P10520); assay: viability-normalized secreted streptokinase activity reduction – plasminogen activation absorbance, OD405, dose response (AID 1914); format: functional, Streptococcus pyogenes M1 GAS;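 also: secreted streptokinase activity via plasminogen activation per viability signal from cell pellet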
T4 sequence (P10520 whole entry): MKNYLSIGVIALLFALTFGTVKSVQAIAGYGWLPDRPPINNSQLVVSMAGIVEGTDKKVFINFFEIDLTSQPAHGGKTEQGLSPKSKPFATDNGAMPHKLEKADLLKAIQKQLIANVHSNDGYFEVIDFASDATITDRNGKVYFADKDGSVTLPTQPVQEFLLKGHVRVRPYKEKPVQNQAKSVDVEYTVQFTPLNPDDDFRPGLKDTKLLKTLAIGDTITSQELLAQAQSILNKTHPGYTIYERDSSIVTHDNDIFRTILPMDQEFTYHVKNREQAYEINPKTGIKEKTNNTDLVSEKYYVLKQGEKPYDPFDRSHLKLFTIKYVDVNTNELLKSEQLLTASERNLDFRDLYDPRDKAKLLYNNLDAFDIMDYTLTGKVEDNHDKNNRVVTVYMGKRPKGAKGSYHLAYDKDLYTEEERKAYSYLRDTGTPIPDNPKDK

[23] = non-specific 3'UTR reporter inhibition in Clone20-Shn3RL – cell-based, Renilla luciferase, cherry-picked, counter-screen for Shn3 inhibitor project, dose response (AID 624133); format: functional
[24] = loss of viability in HepG2 cells – cell-based, CellTiter-Glo, cherry-picked, cytotoxicity control for Shn3 inhibitor project, dose response (AID 624134); format: functional
[25] = reduction of Shn3 3'UTR-driven luciferase in osteoblasts – cell-based, Clone20 osteoblasts, firefly luciferase, cherry-picked, dose response (AID 624132); format: functional;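 also: firefly luciferase luminescence from reporter carrying the Shn3 3'UTR in osteoblasts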

T2 sequence (P49327 whole entry): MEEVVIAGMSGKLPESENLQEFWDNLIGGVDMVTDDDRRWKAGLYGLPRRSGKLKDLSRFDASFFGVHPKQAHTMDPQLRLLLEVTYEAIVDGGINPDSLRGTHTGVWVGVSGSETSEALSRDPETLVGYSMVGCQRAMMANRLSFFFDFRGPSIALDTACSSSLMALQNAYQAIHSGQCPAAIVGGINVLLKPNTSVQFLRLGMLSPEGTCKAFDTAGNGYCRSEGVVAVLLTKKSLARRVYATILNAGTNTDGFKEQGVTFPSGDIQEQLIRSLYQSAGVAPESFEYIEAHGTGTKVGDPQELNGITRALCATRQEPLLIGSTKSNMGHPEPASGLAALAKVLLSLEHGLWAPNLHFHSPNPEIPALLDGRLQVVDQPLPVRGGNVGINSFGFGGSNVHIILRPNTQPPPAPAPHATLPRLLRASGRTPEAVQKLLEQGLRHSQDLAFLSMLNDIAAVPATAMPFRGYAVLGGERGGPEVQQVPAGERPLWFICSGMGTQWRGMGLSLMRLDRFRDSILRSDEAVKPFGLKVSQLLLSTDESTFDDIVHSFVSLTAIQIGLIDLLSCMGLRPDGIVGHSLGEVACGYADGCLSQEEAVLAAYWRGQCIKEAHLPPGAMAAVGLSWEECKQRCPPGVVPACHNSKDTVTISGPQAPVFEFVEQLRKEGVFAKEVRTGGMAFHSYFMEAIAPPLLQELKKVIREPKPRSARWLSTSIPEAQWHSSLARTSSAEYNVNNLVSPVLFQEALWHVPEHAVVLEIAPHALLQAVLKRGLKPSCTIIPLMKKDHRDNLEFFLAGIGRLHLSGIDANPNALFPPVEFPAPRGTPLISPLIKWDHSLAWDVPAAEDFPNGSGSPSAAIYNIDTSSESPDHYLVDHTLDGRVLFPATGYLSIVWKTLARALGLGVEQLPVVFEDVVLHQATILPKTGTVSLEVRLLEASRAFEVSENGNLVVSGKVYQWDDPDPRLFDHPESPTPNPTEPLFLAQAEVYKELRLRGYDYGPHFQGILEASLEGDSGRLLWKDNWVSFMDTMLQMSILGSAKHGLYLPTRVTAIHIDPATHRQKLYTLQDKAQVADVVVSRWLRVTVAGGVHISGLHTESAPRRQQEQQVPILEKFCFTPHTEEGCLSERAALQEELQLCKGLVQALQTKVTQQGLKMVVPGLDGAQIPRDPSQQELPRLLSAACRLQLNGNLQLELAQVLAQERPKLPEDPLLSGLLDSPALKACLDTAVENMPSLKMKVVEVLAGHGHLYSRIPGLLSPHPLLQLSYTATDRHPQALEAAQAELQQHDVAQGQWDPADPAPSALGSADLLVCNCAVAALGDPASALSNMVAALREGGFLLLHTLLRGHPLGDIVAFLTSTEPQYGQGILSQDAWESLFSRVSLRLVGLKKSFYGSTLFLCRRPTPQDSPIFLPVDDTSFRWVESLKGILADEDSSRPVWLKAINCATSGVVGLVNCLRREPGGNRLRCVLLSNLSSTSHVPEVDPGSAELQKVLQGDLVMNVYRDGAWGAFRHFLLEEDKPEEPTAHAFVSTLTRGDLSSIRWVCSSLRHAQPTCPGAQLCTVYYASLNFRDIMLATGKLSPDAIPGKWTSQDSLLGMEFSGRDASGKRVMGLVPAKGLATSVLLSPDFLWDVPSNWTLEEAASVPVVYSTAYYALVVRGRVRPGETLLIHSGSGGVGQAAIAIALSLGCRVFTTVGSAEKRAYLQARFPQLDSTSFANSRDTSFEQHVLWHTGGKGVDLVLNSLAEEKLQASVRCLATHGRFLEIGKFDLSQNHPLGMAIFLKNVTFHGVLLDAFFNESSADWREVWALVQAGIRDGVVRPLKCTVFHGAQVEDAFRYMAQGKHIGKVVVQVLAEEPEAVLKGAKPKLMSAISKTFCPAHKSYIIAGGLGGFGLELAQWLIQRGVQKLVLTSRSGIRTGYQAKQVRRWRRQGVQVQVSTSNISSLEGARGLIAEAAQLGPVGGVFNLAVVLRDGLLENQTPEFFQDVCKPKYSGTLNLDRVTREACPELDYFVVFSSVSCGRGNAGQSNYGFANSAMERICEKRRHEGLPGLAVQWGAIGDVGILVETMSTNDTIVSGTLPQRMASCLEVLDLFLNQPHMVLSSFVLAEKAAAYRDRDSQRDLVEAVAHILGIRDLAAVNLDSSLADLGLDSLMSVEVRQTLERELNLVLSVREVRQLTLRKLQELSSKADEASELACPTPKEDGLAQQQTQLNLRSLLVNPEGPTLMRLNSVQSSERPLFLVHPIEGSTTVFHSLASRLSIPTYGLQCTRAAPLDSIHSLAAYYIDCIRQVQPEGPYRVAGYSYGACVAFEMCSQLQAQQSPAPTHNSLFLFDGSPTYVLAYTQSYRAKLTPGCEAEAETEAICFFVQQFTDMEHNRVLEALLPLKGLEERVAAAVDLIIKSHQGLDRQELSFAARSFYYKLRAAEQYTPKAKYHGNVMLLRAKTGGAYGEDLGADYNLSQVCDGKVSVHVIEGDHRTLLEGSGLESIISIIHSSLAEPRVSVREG
Sequence of Cytochrome P450 3A4 (P08684 whole entry): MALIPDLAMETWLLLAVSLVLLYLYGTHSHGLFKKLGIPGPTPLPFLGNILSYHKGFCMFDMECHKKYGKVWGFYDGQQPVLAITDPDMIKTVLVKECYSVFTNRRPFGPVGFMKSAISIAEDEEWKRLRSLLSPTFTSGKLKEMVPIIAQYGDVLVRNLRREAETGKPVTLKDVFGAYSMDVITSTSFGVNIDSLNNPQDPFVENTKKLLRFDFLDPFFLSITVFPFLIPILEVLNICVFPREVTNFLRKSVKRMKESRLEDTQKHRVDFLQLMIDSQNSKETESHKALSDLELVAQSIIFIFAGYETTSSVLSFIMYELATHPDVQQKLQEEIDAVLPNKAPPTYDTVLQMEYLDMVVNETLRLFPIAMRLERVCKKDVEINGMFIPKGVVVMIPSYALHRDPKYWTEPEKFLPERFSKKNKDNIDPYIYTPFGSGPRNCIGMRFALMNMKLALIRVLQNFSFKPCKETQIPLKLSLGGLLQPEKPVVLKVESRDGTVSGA

## C[C@@H]1CN([C@H](C)CO)C(=O)Cc2cc(NS(=O)(=O)c3ccc(Cl)cc3)ccc2O[C@H]1CN(C)Cc1ccccc1
[1]
  AC50: 3.09 µM (active)

## COc1ccc2c3c(n(C)c2c1)[C@@H](CO)N(C(=O)Nc1ccc(F)cc1)CC31CN(Cc2ccccc2F)C1
[2]
  AC50: 5.53 µM (active)
[3]
  AC50: 24.2 µM (active)

## COc1cc2c(cc1OC)C(c1ccc(-c3ccccc3Cl)o1)=NCC2
HEK293
  AC50: 15.2 µM (active)

## Cc1cc(-c2cc(-c3ccc(Cl)cc3)nc(N)c2C#N)co1
[4]
  AC50: 6.87 µM (active)
Cytochrome P450 3A4
  AC50: 17.8 µM (inconclusive)
[5]
  EC50: > 120 µM (not active)
[6]
  EC50: > 120 µM (not active)
[7]
  EC50: 20.9 µM (active)

## Cc1ccc(S(=O)(=O)Nc2ccc3c(c2)C(=O)N([C@@H](C)CO)C[C@H](C)[C@H](CN(C)Cc2ccc(-c4ccccc4)cc2)O3)cc1
[1]
  AC50: 5.6 µM (active)

## Cc1nn(-c2ccccc2)nc1C(=O)c1c(C)nn(-c2ccccc2)c1O
Cells [8]
  IC50: 12.8 µM (active)
[9]
  CC50: 35.8 µM (active)

## Cc1ccc(-c2nnc(NC(=O)c3ccco3)o2)c(C)c1
Cells [8]
  IC50: 0.81 µM (active)
[10]
  CC50: 17.5 µM (active)
[11]
  CC50: > 40 µM (active)

## Cc1ccc(N2C(=O)C3CC(c4ccccc4)=C4C5C=CC(C6C(=O)N(c7ccc(C)cc7C)C(=O)C56)C4C3C2=O)c(C)c1 (stereo unspecified)
[12]
  EC50: 2.49 µM (active)
[13]
  EC50: > 260 µM (inactive)
Fatty acid synthase [14]
  IC50: 17.4 µM (active)
Fatty acid synthase [15]
  IC50: 10.3 µM (active)
[16]
  EC50: > 60 µM (not active)

## CC(C)(C)SCCNC(=O)c1ccc(Cl)c([N+](=O)[O-])c1
[4]
  AC50: 2.84 µM (active)
Fatty acid synthase [14]
  IC50: 6.39 µM (active)
Fatty acid synthase [15]
  IC50: 5.65 µM (active)

## CCCn1c(C)cc(C(=O)COC(=O)c2cccnc2O)c1C
HEK293
  AC50: 5.4 µM (active)
Leucine aminopeptidase
  IC50: 15.3 µM (active)
[17]
  EC50: 0.289 µM (active)

## O=C(NNc1c(Cl)cc(Cl)cc1Cl)c1cccc([N+](=O)[O-])c1
Fatty acid synthase [14]
  IC50: 10.7 µM (active)
Fatty acid synthase [15]
  IC50: 6.77 µM (active)
INS1
  AC50: 3.93 µM (active)

## Cc1ccc(C(=O)CN(CCCC(N)=O)S(=O)(=O)c2ccc([N+](=O)[O-])cc2)cc1
Fatty acid synthase [14]
  IC50: 3.83 µM (active)
Fatty acid synthase [15]
  IC50: 2.83 µM (active)

## COc1ccc(NC(=O)CN(c2ccc([N+](=O)[O-])cc2)S(=O)(=O)c2ccccc2)cc1
Fatty acid synthase [14]
  IC50: 7.77 µM (active)
Fatty acid synthase [15]
  IC50: 3.48 µM (active)

## CN1C(=O)C(=C(Nc2ccccc2)SCc2ccccc2Cl)C(=O)N(C)C1=O
Cells [8]
  IC50: 3.96 µM (active)
[10]
  CC50: > 20 µM (active)
[11]
  CC50: > 40 µM (active)

## Cc1ccc(C2C3=C(CC(C)(C)CC3=O)N=C3c4ccccc4C(=O)C32)cc1 (stereo unspecified)
[9]
  CC50: > 40 µM (active)
[18]
  EC50: 24 µM (active)
[19]
  EC50: 1.01 µM (active)

## C[C@@H]1CCCCO[C@@H](CN(C)Cc2ccc(C(=O)Nc3ccccc3N)cc2)[C@@H](C)CN([C@H](C)CO)C(=O)c2cc(NS(=O)(=O)c3cccs3)ccc2O1
[1]
  AC50: 2.39 µM (active)

## CCCc1cn(CC[C@H]2CC[C@H](NS(=O)(=O)c3ccc(-c4ccccc4)cc3)[C@@H](CO)O2)nn1
[2]
  AC50: 4.48 µM (active)
[3]
  AC50: > 39 µM (inactive)

## CCn1c(CNc2ccc(Cl)cc2)nnc1SCc1ccc(C)cc1
[4]
  AC50: 8.07 µM (active)

## CCc1nc(SCC(=O)c2ccc3c(c2)OCCO3)c2ccccc2n1
HEK293
  AC50: 32.8 µM (active)

## C[C@H]1CN([C@@H](C)CO)C(=O)Cc2cc(NS(=O)(=O)c3ccc(Cl)cc3)ccc2O[C@@H]1CN(C)Cc1ccc(Oc2ccccc2)cc1
[1]
  AC50: 3.33 µM (active)

## CCC(c1nnnn1Cc1ccco1)N(CCc1ccccc1)Cc1cc2cc(C)ccc2nc1O (stereo unspecified)
Cells [20]
  IC50: > 29.9 µM (inactive)
Cells [21]
  EC50: > 29.9 µM (inactive)

## Cc1ccc(Cn2c(C(CO)Nc3nc(-c4ccc(F)cc4)cs3)nc3ccccc32)cc1 (stereo unspecified)
[22]
  EC50: 5.27 µM (active)
Streptococcus
  EC50: 5.23 µM (active)
[9]
  CC50: 28.5 µM (active)
Streptokinase A
  EC50: > 150 µM (not active)

## O=C(Nc1cccc(Cl)c1N1CCCC1)c1ccc([N+](=O)[O-])o1
Cells [8]
  IC50: 18.4 µM (active)
[10]
  CC50: 12.4 µM (active)
[11]
  CC50: 24 µM (active)

## Cc1ccccc1-c1ccc2c(c1)O[C@@H](CN(C)Cc1ccncc1)[C@H](C)CN([C@H](C)CO)S2(=O)=O
[2]
  AC50: 3.9 µM (active)
[3]
  AC50: > 39 µM (inactive)

## O=C(CC(=O)N/N=C\c1ccc([N+](=O)[O-])cc1)NCCc1ccccc1
Fatty acid synthase [14]
  IC50: 23.6 µM (inactive)
Fatty acid synthase [15]
  IC50: 20.3 µM (inactive)

## CC(C)=CCc1cc([C@@H]2COc3c(ccc4c3C=CC(C)(C)O4)C2)c(O)cc1O
[22]
  EC50: 1.8 µM (active)
[4]
  AC50: 3.57 µM (active)
Streptococcus
  EC50: 5.23 µM (active)
[23]
  AC50: 4.11 µM (active)
[24]
  AC50: 58.3 µM (active)
[25]
  AC50: 7.54 µM (active)
Streptokinase A
  EC50: > 150 µM (not active)

## C[C@H](CO)N1C[C@H](C)[C@@H](CN(C)S(=O)(=O)c2ccc(F)cc2)Oc2c(NC(=O)NC3CCCCC3)cccc2C1=O
[1]
  AC50: 7.84 µM (active)
